Source: patent publication US7205382B2, “Peptides, the production and use thereof for binding immunoglobulins” (Fresenius Medical Care Affina GmbH, priority 2000, dated 2007)
Bridge positions count the residues as written; N and C are the ends. Square brackets hold non-standard residues; d marks the D form. Ends that are not written are not given here. cellulose = not defined here; βAla = NCCC(=O)O

Experiments:
Type in all cases: binding
Parameters in all cases: key: No binding of immunoglobulin for the defined peptide variant, detection negative: 0; Binding of immunoglobulin for the defined peptide variant, detection positive: +
human IgG-Fc = test: Cellulose-immobilized 13-mer peptide variants incubated with human IgG-Fc, anti-human IgG-AP detection; settings: IgG-Fc 1 μg/ml in blocking buffer, 3 h room temperature
Outline: (§1)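 Spot membrane, (βA)(βA) spacer; T-TBS pH 8.0 wash, block 5% saccharose/4% BSA. 3 h RT with IgG-Fc 1 μg/ml, serum 1:10,000, or block buffer only (specificity control). 3× wash, AP-anti-human IgG 1.2 μg/ml, NBT/BCIP in pH 9.5 buffer.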

[1] = tested on: immunoglobulins in human plasma; test: Cellulose-immobilized 13-mer peptide variants incubated with human plasma, anti-human IgG-AP detection; settings: human plasma as sample, diluted 1:10,000 in blocking buffer, 3 h room temperature
Outline: as §1

serum albumin = test: Cellulose-immobilized 13-mer peptide variants incubated with serum albumin (negative control), anti-human IgG-AP detection; settings: blocking buffer without addition, 3 h room temperature
Outline: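 Read-out was colorimetric NBT/BCIP staining (developing buffer pH 9.5) after alkaline phosphatase-conjugated anti-human IgG at 1.2 μg/ml. Before this, the immobilized peptides had been incubated 3 h at room temperature with 1 μg/ml IgG-Fc, 1:10,000 diluted serum, or albumin-containing blocking buffer without addition.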

Substance | Result for incubation with human IgG-Fc (immunoglobulin binding detection) (human IgG-Fc) | Result for incubation with human plasma (immunoglobulin binding detection) [1] | Result for incubation with serum albumin (immunoglobulin binding detection) (serum albumin)
05N: cellulose-bound 13-mer variant DCAWNLGELVWCT-(βA)(βA) (disulfide 2-12 (inferred); not fully specified (N-terminus, C-terminus); printed as DCAWNLGELVWCT-(βA)(βA); also: cellulose-bound) | 0 | 0 | 0
05P: cellulose-bound 13-mer variant DCAWPLGELVWCT-(βA)(βA) (disulfide 2-12 (inferred); not fully specified (N-terminus, C-terminus); printed as DCAWPLGELVWCT-(βA)(βA); also: cellulose-bound) | 0 | 0 | 0
05Q: cellulose-bound 13-mer variant DCAWQLGELVWCT-(βA)(βA) (disulfide 2-12 (inferred); not fully specified (N-terminus, C-terminus); printed as DCAWQLGELVWCT-(βA)(βA); also: cellulose-bound) | 0 | 0 | 0
05R: cellulose-bound 13-mer variant DCAWRLGELVWCT-(βA)(βA) (disulfide 2-12 (inferred); not fully specified (N-terminus, C-terminus); printed as DCAWRLGELVWCT-(βA)(βA); also: cellulose-bound) | 0 | 0 | 0
05S: cellulose-bound 13-mer variant DCAWSLGELVWCT-(βA)(βA) (disulfide 2-12 (inferred); not fully specified (N-terminus, C-terminus); printed as DCAWSLGELVWCT-(βA)(βA); also: cellulose-bound) | 0 | 0 | 0
05T: cellulose-bound 13-mer variant DCAWTLGELVWCT-(βA)(βA) (disulfide 2-12 (inferred); not fully specified (N-terminus, C-terminus); printed as DCAWTLGELVWCT-(βA)(βA); also: cellulose-bound) | 0 | 0 | 0
05V: cellulose-bound 13-mer variant DCAWVLGELVWCT-(βA)(βA) (disulfide 2-12 (inferred); not fully specified (N-terminus, C-terminus); printed as DCAWVLGELVWCT-(βA)(βA); also: cellulose-bound) | 0 | 0 | 0
05W: cellulose-bound 13-mer variant DCAWWLGELVWCT-(βA)(βA) (disulfide 2-12 (inferred); not fully specified (N-terminus, C-terminus); printed as DCAWWLGELVWCT-(βA)(βA); also: cellulose-bound) | 0 | 0 | 0
05Y: cellulose-bound 13-mer variant DCAWYLGELVWCT-(βA)(βA) (DCAWYLGELVWCT[βAla][βAla]; disulfide 2-12 (inferred); not fully specified (N-terminus); printed as DCAWYLGELVWCT-(βA)(βA); also: cellulose-bound) | 0 | 0 | 0
06A: cellulose-bound 13-mer variant DCAWHAGELVWCT-(βA)(βA) (DCAWHAGELVWCT[βAla][βAla]; disulfide 2-12 (inferred); not fully specified (N-terminus); printed as DCAWHAGELVWCT-(βA)(βA); also: cellulose-bound) | + | 0 | 0
06C: cellulose-bound 13-mer variant DCAWHCGELVWCT-(βA)(βA) (DCAWHCGELVWCT[βAla][βAla]; not fully specified (N-terminus); printed as DCAWHCGELVWCT-(βA)(βA); cysteine pairing not given here; also: cellulose-bound) | 0 | 0 | 0
06D: cellulose-bound 13-mer variant DCAWHDGELVWCT-(βA)(βA) (DCAWHDGELVWCT[βAla][βAla]; disulfide 2-12 (inferred); not fully specified (N-terminus); printed as DCAWHDGELVWCT-(βA)(βA); also: cellulose-bound) | + | 0 | 0
06E: cellulose-bound 13-mer variant DCAWHEGELVWCT-(βA)(βA) (DCAWHEGELVWCT[βAla][βAla]; disulfide 2-12 (inferred); not fully specified (N-terminus); printed as DCAWHEGELVWCT-(βA)(βA); also: cellulose-bound) | + | 0 | 0
06F: cellulose-bound 13-mer variant DCAWHFGELVWCT-(βA)(βA) (DCAWHFGELVWCT[βAla][βAla]; disulfide 2-12 (inferred); not fully specified (N-terminus); printed as DCAWHFGELVWCT-(βA)(βA); also: cellulose-bound) | 0 | 0 | 0
06G: cellulose-bound 13-mer variant DCAWHGGELVWCT-(βA)(βA) (DCAWHGGELVWCT[βAla][βAla]; disulfide 2-12 (inferred); not fully specified (N-terminus); printed as DCAWHGGELVWCT-(βA)(βA); also: cellulose-bound) | + | + | 0
06H: cellulose-bound 13-mer variant DCAWHHGELVWCT-(βA)(βA) (DCAWHHGELVWCT-{βAla-βAla-cellulose}; disulfide 2-12 (inferred); not fully specified (N-terminus); printed as DCAWHHGELVWCT-(βA)(βA); reading uncertain) | + | + | 0
06I: cellulose-bound 13-mer variant DCAWHIGELVWCT-(βA)(βA) (DCAWHIGELVWCT-{βAla-βAla-cellulose}; disulfide 2-12 (inferred); not fully specified (N-terminus); printed as DCAWHIGELVWCT-(βA)(βA); reading uncertain) | 0 | 0 | 0
06K: cellulose-bound 13-mer variant DCAWHKGELVWCT-(βA)(βA) (DCAWHKGELVWCT-{βAla-βAla-cellulose}; disulfide 2-12 (inferred); not fully specified (N-terminus); printed as DCAWHKGELVWCT-(βA)(βA); reading uncertain) | + | + | 0
06M: cellulose-bound 13-mer variant DCAWHMGELVWCT-(βA)(βA) (DCAWHMGELVWCT-{βAla-βAla-cellulose}; disulfide 2-12 (inferred); not fully specified (N-terminus); printed as DCAWHMGELVWCT-(βA)(βA); reading uncertain) | + | + | 0
06N: cellulose-bound 13-mer variant DCAWHNGELVWCT-(βA)(βA) (DCAWHNGELVWCT-{βAla-βAla-cellulose}; disulfide 2-12 (inferred); not fully specified (N-terminus); printed as DCAWHNGELVWCT-(βA)(βA); reading uncertain) | + | + | 0
